Assays:
[1] = system: human peripheral blood lymphocytes (sheep red blood cells as antigen); assay: Antigen-specific adjuvanticity: direct anti-SRBC plaque forming cells, human system; type: cell-based; settings: for Peak Direct anti-SRBC PFC/Culture: Table 7, second group
Protocol: ^1 Studies were carried in a manner similar to those of Table 1,
except that a human lymphocyte preparation was used.
The results shown in Table 7, below, were obtained similarly to those discussed above, but using human lymphocytes. Some of those studies utilized lymphocytes from more than one individual, and are therefore reported with multiple entries.
Human peripheral blood lymphocytes (PBL) were prepared from normal heparinized venous blood by Ficoll-diatrizoate density gradient centrifugation. PBL were depleted of suppressor T cells bearing the histamine type 2 receptor by adhering them to the surfaces of histamine-rabbit serum albumin-coated plastic petri dishes (Cell-ect No. 2 kit; Seragen, Boston, Mass.) and by recovering the nonadherent cells by panning as described by Wysocki and Sato, Proc. Natl. Acad. Sci. USA, 75:2844 (1978) and modified by Cavagnaro and Osband, Biotechniques, January/February:30 (1983).
The tissue culture medium employed in these studies for human lymphocytes was prepared as follows: One hundred milliliters (ml) contained 87.9 ml RPMI 1640 (Flow Laboratories, Rockville, Md.), 0.1 ml 100×glutamine,1.0 ml of 1.0 M HEPES buffer (Microbilogical Associates, Betheseda, Md.), 1.0 ml of water containing 10^4 U of penicillin G and 10^4 micrograms of streptomycin, and 10 ml of fresh autologous heat-inactivatedplasma. For evaluation of the primary humoral immune response to SRBC, lymphoid cells prepared as above were cultured at a density of 2×10^6 /ml in a volume of 1.0 ml containing 5×10^6 SRBC as antigen (Colorado Serum Co., Denver, Colo.) together with IL-2 (a partially purified preparation of human IL-2 that was free of interferon-gamma activity was obtained from Electro-Nucleonics, Inc., Silver Spring, Md.) and the guanine nucleoside derivative.
Assay of plaque forming cells (PFC). PFC secreting antibodies against SRBC were evaluated after 4 or 5 days of culture using a modification of the hemolytic plaque assay of Jerne and Nordin, Science, 140:405 (1963). The cells were brought up in complete medium before plaquing; they were plaqued in standard low Mr agarose (Bio-Rad Laboratories, Richmond Calif.), and were incubated in SRBC-absorbed guinea pig complement for one hour after a 1.5 hour incubation without complement.

[2] = system: anti-TNP-BSA antibody titers in CBA/CaJ mice; assay: In vivo anti-TNP-BSA antibody response (ELISA); set-up: species or system mouse; settings: i.p., 0.2 ml at 5 mg/ml, 37 days
Protocol: FIG. 4 is a graph containing a number of plots that illustrate the in vivo kinetics of enhanced anti-trinitrophenyl bovine serum albumin (TNP-BSA) antibody responses elicited by contacting leukocytes in vivo with a composition containing 7-allyl-8-mercaptoguanosine (7a8MGuo). Here, the guanosine derivative (0.2 ml of 7a8MGuo at 5 mg/ml) was in a vehicle of 100 percent sesame oil (solid line) or 2 percent sesame oil in saline (dotted line) when introduced into the animal.
Three groups of CBA/CaJ mice were utilized. Each group was immunized with the TNP-BSA conjugate. […]
Antibody titers to TNP-BSA were determined over a period of 37 days using standard enzyme-linked immunosorbent assay (ELISA) procedures with TNP-BSA as antigen. […]
CBA/CaJ mice were immunized intraperitonally (i.p.) using a conjugate (TNP-BSA) prepared by the reaction of 2,4,6-trinitrobenzene sulfonic acid (TNBS) and bovine serum albumin (BSA) in a 0.28 molar cacodylate buffer, at pH 6.9. […] Anti-TNP-BSA antibody secretion from each group was thereafter monitored over a period of 37 days by standard enzyme-linked immunosorbant assay (ELISA) techniques using TNP-BSA as antigen.
Injections. […] Anti-TNP-BSA antibody titers were determined using standard techniques.

[3] = system: SJL splenocytes (irradiated CBA/CaJ splenocyte stimulators); assay: T cell proliferation in mixed leukocyte cultures, SJL splenocytes; type: cell-based, mouse; settings: responder +
From the text: In evaluating the effect of a guanosine derivative on alloantigen-induced proliferation, it is imperative to minimize the simultaneous mitogenic response of B cells to contact with a guanosine derivative. Spleen cells from SJL mice (whose B cells are hyporesponsive to the mitogenic effect of a guanosine derivative, but not to its adjuvant activity) were used as responder cells in two studies. Those responder cells were stimulated with irradiated allogenic cells (from CBA/CaJ mice) in the presence of no added nucleoside, incremental amounts of a guanosine derivative of the invention, 7M8oGuo, or with another guanosine derivative, 8MGuo, used as a positive control.
^1 Plus signs (+) are utilized to indicate the presence of the
material of the column heading in the culture medium, whereas minus signs
(-) are utilized to show absence of such a material from the culture
^3 Allogeneic cells used to costimulate proliferation, after exposure
T Helper Cell Activation. 1.5×10^5 viable spleen cells from SJL mice or CBA/CaJ mouse thymocytes were cultured with or without an equal number of irradiated (2500 rads) spleen cells from CBA/CaJ or BDFl mice respectively, in 0.2 ml of culture medium in the presence of incremental concentrations of the exemplary 7,8-disubstituted guanine derivatives. The lymphocyte culture medium utilized was that described before, and was further supplemented with 2-mercaptoethanol to a final concentration of 50 uM. Thymocyte cultures also contained 10 percent (v/v) of a concanavalin A-conditioned rat spleen cell medium sold under the name Rat T Cell Monoclone by Collaborative Research. Following 90 hours of culture, one microCurie [^3 H]TdR per culture was admixed, and the resulting culture was maintained for a further six hour time period.
The cultures were harvested with a Brandel cell harvester (M24V, Biological Research and Development Laboratories, Rockville, Md.) onto glass fiber filter disks. Filter disks were transferred to plastic scintillation vials, covered with liquid scintillation cocktail, and counted in a Beckman LS5700 liquid scintillation counter.

## C=CCn1c(=S)n([C@@H]2O[C@H](CO)[C@@H](O)[C@H]2O)c2nc(N)[nH]c(=O)c21 [7a8MGuo, 7-(2-Propenyl)-8-thioxoguanosine]
[1]; person a
  Peak Direct anti-SRBC PFC/Culture: 673 PFC/Culture
[1]; person b
  Peak Direct anti-SRBC PFC/Culture: 6475 PFC/Culture
[1]; person c
  Peak Direct anti-SRBC PFC/Culture: 3058 PFC/Culture
[1]; Table 9, human, * = single study
  Average 1 Log Plaque Values: 45,630 ± 28,808 per micromole
[2]; 2 percent sesame oil in saline vehicle
  anti-TNP-BSA antibody titer, ratio to control: about 4 times
[2]; 100 percent sesame oil vehicle
  anti-TNP-BSA antibody titer, ratio to control: about 5 times
[3]; Study 1, stimulator +, 10^-5 M
  [3H] TdR Uptake: 67,500 ± 2900 counts per minute
[3]; Study 1, stimulator -, 10^-5 M
  [3H] TdR Uptake: 36,700 ± 2400 counts per minute
[3]; Study 2, stimulator +, 10^-5 M
  [3H] TdR Uptake: 36,400 ± 3800 counts per minute
[3]; Study 2, stimulator -
  [3H] TdR Uptake: 19,100 ± 1100 counts per minute

Source: patent US5011828A, “Immunostimulating guanine derivatives, compositions and methods” (priority 1988, dated 1991)
